How the values were obtained:
[1] = cytotoxicity assay (MTT, CC50); type: cell-based; conditions: human, HepDE19 cells
Experimental: (§1) Cell plates were then incubated with compound dilutions and controls as described above, and addition of 3-[4,5-dimethylthiazol-2-yl]-2,5-diphenyltetrazolium bromide (MTT, Sigma-Aldrich) was added to a final concentration of 0.5 mg/ml (Mosmann, T. 1983). Plates were again incubated at 37° C. for 4 hrs, after which 10% SDS/0.01N HCl was added to each well in a volume equal to the medium (100 μl), followed by overnight incubation. Absorbance was read in the Rainbow spectrophotometer (Tecan US Inc., Durham, N.C.) at 570 nm (reference wavelength of 630 nm), and analyzed with XLfit 4.0 as described above.

[2] = test system: HBV DP-rcDNA; assay: DP-rcDNA level in HepDES19 cells (Southern blot); type: cell-based, hepatitis B virus; conditions: for reduction of DP-rcDNA: early time point
Text: Viral nucleic acid analysis: Total cellular RNA was extracted with TRIzol reagent (Invitrogen, Grand Island, N.Y.) by following manufacturer's directions. Ten microgram of total cellular RNA was resolved in 1.5% agarose gel containing 2.2 M formaldehyde and transferred onto Hybond-XL membrane (GE Healthcare, Piscataway, N.J.) in 20×SSC buffer. Intracellular hepadnaviral core DNA and cccDNA (Hirt DNA) were extracted as described previously (Guo, H., D. Jiang, T. Zhou, A. Cuconati, T. M. Block, and J. T. Guo. 2007. Guo, H., D. Jiang, T. Zhou, A. Cuconati, T. M. Block, and J. T. Guo. 2007. Guo, H., R. Mao, T. M. Block, and J. T. Guo. 2010. Guo, H., W. S. Mason, C. E. Aldrich, J. R. Saputelli, D. S. Miller, A. R. Jilbert, and J. E. Newbold. 2005). Half of the DNA samples recovered from one well of a 6-well-plate were resolved by electrophoresis into a 1.2% agarose gel and blotted onto Hybond-XL membrane. Membranes were probed with either an α-^32P-UTP (800 Ci/mmol, Perkin Elmer) labeled hepadnaviral minus (detecting DNA) or plus strand (detecting RNA) specific full-length riboprobe and exposed to a phosphorimager screen (Fuji Film, Tokyo, Japan). Hybridization signals were visualized by Typhoon FLA-7000 (GE Healthcare) and quantified with ImageQuantTL software (GE Healthcare).
Identification of compounds that inhibits cccDNA accumulation in HepDES19 cells: Compounds were tested on HepDES19 cells, which have a higher level of cccDNA production than HepDE19 cells (Guo, H., D. Jiang, T. Zhou, A. Cuconati, T. M. Block, and J. T. Guo. 2007). Briefly, after withdrawal of tetracycline, HepDES19 cells were left untreated, or were treated with compound at serial concentrations; tetracycline-free media was changed every other day with fresh compound supplementation. […] The cells were harvested at day 12, viral RNA (top panel), core DNA (middle panel), and Hirt DNA (DP-rcDNA and cccDNA) (bottom panels) were extracted and analyzed by Northern blot and Southern blot, respectively. Shorter exposure of the Hirt DNA blot was used for the quantitative determination of DP-rcDNA signals. […]

[3] = test system: HepDE19 cells; assay: cytotoxicity assay (MTT, CC50); type: cell-based
Experimental: as §1

| SMILES | CC50 [1] [µM] | reduction of DP-rcDNA [2] | CC50 [3] [µM] | reduction of putative cccDNA precursor DP-rcDNA ([2]; HepDES19 cells, day 12) |
| --- | --- | --- | --- | --- |
| Cc1nc2cc(NC(=O)c3ccc(S(=O)(=O)N(C)Cc4ccccc4)cc3)ccc2s1 [CCC-0346, 4-(Benzyl-methyl-sulfamoyl)-N-(2-methyl-benzothiazol-5-yl)-benzamide] | 3 | significant reduction | – | – |
| O=C(CN(c1cc(C(F)(F)F)ccc1Cl)S(=O)(=O)c1ccccc1)NCc1ccncc1 [CCC-0975, 2-[Benzenesulfonyl-(2-chloro-5-trifluoromethyl-phenyl)-amino]-N-pyridin-4-ylmethyl-acetamide] | – | significant reduction | > 50 | significant reduction |

— patent US9657013B2, “Inhibitors of hepatitis B virus covalently closed circular DNA formation and their method of use” (priority 2012, dated 2017)
